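Growth conditions: 96-well plates. Treatment: test compound, 48 hours, 5 concentrations. Analysis: linear interpolation between bracketing concentrations; unreached endpoints set to highest concentration. At the GI50, growth is halved. At the TGI there is no net growth.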
Key:
Assay in all cases: NCI anticancer screen, dose series, 48 h
[1] = system: T-47D breast
[2] = system: LOX IMVI melanoma
[3] = system: K-562 leukemia
[4] = system: MDA-MB-435
[5] = system: SF-268 CNS
[6] = system: UACC-257 melanoma
[7] = system: NCI-H23 lung
[8] = system: OVCAR-5 ovarian
[9] = system: IGROV1 ovarian
[10] = system: A549 NSCLC

SMILES	GI50 [1] [µM]	TGI [1] [µM]	GI50 [2] [µM]	TGI [2] [µM]	GI50 [3] [µM]	TGI [3] [µM]	GI50 [4] [µM]	TGI [4] [µM]	GI50 [5] [µM]	TGI [5] [µM]	GI50 [6] [µM]	TGI [6] [µM]	GI50 [7] [µM]	TGI [7] [µM]	GI50 [8] [µM]	TGI [8] [µM]	GI50 [9] [µM]	TGI [9] [µM]	GI50 [10] [µM]	TGI [10] [µM]
CCCCCCCCCCCCOC1C(CNC(=O)C2OC3OC(C)(C)OC3C2NC(=O)Nc2ccc(CC(=O)NC(Cc3ccccc3)C(=O)O)cc2)OC2OC(C)(C)OC21 (stereo not given)	16.3	> 25	> 25	> 25	> 25	> 25	> 25	> 25	> 25	> 25	> 25	> 25	> 25	> 25	> 25	> 25	22.5	> 25	> 25	> 25
O=C(Nc1ccc(/C=C/c2ccc(NC(=O)c3cc(S(=O)(=O)O)c4cccnc4c3O)cc2S(=O)(=O)O)c(S(=O)(=O)O)c1)c1cc(S(=O)(=O)O)c2cccnc2c1O	> 49.6	> 100	3.07	> 28	12	> 75.2	> 56.7	> 74.1	7.99	> 100	25.8	> 56.3	6.65	> 42	> 20.2	> 56.9	18.5	> 60.2	9.49	> 56
Cc1ccc2c(c1)S(=O)(=O)c1ccc3ccccc3c1N2	–	> 100	–	> 100	–	> 100	–	> 100	–	> 100	–	> 100	–	> 100	–	> 100	–	> 100	–	> 100
NC(N)=N/N=C/c1ccc(-c2ccc(-c3cc(Cl)cc(Cl)c3)s2)cc1	2.02	4.54	1.65	3.42	0.431	1.79	1.65	3.28	1.85	4.22	1.94	4.22	1.9	3.88	1.59	3.02	1.68	3.36	2.15	4.99
O=c1ssc(Cl)c1Cl	–	> 10	–	> 10	–	9.04	–	> 10	–	> 10	–	> 10	–	> 10	–	> 10	–	> 10	–	> 10
